Assay results as given in US9663512B2, “Bicyclic heterocycle compounds and their uses in therapy” (ASTEX THERAPEUTICS LIMITED, priority 2012, dated 2017).
Structures can show the parent of a compound that is named as a salt. Where two headings read alike, the source gives them in different places. Values belong to the molecule of their own block, whether it stands above or below them.

Assays:
[1] = test system: EVSA-T (human breast carcinoma); experiment: Anti-proliferative activity, Alamar Blue assay, EVSA-T; type: cell-based; conditions: EVSA-T cell line, read-out: EVSA-T prolif (EC50)
[2] = biological target: T1, BIR3 domain of human XIAP (Homo sapiens, UniProt P98170); experiment: XIAP in vitro competitive displacement binding assay (fluorescence polarization); conditions: for IC50: XIAP BIR3 fluorescence polarization displacement, average (e.g. geometric mean), read-out: Xiap IC50 or PI (IC50); for inhibition at […]: at 0.12 μM; for inhibition at […] / inhibition at 0.04 µM: read-out: Xiap IC50 or PI (percent inhibition)
T1 construct: BIR3 domain of human XIAP (residues 252-350) fused to a His-tag; His-tag (cleaved yes); made in house; host or cells: Escherichia coli
T1 sequence (P98170 252-350): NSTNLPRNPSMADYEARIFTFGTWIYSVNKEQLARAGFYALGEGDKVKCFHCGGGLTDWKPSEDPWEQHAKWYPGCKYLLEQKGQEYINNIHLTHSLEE

[3] = biological target: T2, BIR3 domain of human cIAP-1 (Homo sapiens, UniProt Q13490); experiment: cIAP-1 in vitro competitive displacement binding assay (fluorescence polarization); conditions: at 0.012 μM; read-out: cIAP1 IC50 or PI (percent inhibition)
T2 construct: human cIAP-1 (residues 267-363) fused to a GST-tag; GST-tag (cleaved yes); made in house; host or cells: Escherichia coli
T2 sequence (Q13490 267-363): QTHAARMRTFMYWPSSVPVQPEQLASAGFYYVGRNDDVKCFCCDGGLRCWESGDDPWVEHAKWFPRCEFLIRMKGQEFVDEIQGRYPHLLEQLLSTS

Compound: Cc1cn(C[C@H]2CN[C@H](C)CN2CC(=O)N2CC(C)(C)c3ncc(Cc4ccc(F)cc4)cc32)cn1 (single isomer, unassigned) [Example 13, dihydrochloride]
EC50 ([1]; 72 hours): 9.9 nM

Compound: Cc1cncn1C[C@H]1CN[C@H](C)CN1CC(=O)N1CC(C)(C)c2ncc(Cc3ccc(F)cc3)cc21 (single isomer, unassigned) [Example 14, dihydrochloride]
EC50 ([1]; 72 hours): 5.9 nM

Compound: Cc1cnn(C[C@H]2CN[C@H](C)CN2CC(=O)N2CC(C)(C)c3ncc(Cc4ccc(F)cc4)cc32)c1C (single isomer, unassigned) [Example 20, dihydrochloride]
EC50 ([1]; 72 hours): < 1000 nM
EC50 ([1]; EVSA-T, 72 h): 2.1 nM

Compound: Cc1cc(C)n(C[C@H]2CN[C@H](C)CN2CC(=O)N2CC(C)(C)c3ncc(Cc4ccc(F)cc4)cc32)n1 [Example 1, 2-[(2R,5R)-2-[(3,5-Dimethyl-1H-pyrazol-1-yl)methyl]-5-methylpiperazin-1-yl]-1-{6-[(4-fluorophenyl)methyl]-3,3-dimethyl-1H,2H,3H-pyrrolo[3,2-b]pyridin-1-yl}ethan-1-one, dihydrochloride]
IC50 [2]: 91 nM

Compound: Cc1nccn1C[C@H]1CN[C@H](C)CN1CC(=O)N1CC(C)(C)c2ncc(Cc3ccc(F)cc3)cc21 [Example 2, 1-{6-[(4-Fluorophenyl)methyl]-3,3-dimethyl-1H,2H,3H-pyrrolo[3,2-b]pyridin-1-yl}-2-[(2R,5R)-5-methyl-2-[(2-methyl-1H-imidazol-1-yl)methyl]piperazin-1-yl]ethan-1-one, dihydrochloride]
inhibition at […] [2]: 65%
inhibition at […] [3]: 100%

Compound: Cc1ncn(C[C@H]2CN[C@H](C)CN2CC(=O)N2CC(C)(C)c3ncc(Cc4ccc(F)cc4)cc32)c1C [Example 3, 2-[(2R,5R)-2-[(4,5-Dimethyl-1H-imidazol-1-yl)methyl]-5-methylpiperazin-1-yl]-1-{6-[(4-fluorophenyl)methyl]-3,3-dimethyl-1H,2H,3H-pyrrolo[3,2-b]pyridin-1-yl}ethan-1-one, dihydrochloride]
inhibition at 0.04 µM [2]: 34%
inhibition at […] [3]: 99%

Compound: CCc1nccn1C[C@H]1CN[C@H](C)CN1CC(=O)N1CC(C)(C)c2ncc(Cc3ccc(F)cc3)cc21 [Example 4, 2-[(2R,5R)-2-[(2-Ethyl-1H-imidazol-1-yl)methyl]-5-methylpiperazin-1-yl]-1-{6-[(4-fluorophenyl)methyl]-3,3-dimethyl-1H,2H,3H-pyrrolo[3,2-b]pyridin-1-yl}ethan-1-one, dihydrochloride]
inhibition at 0.04 µM [2]: 35%
inhibition at […] [3]: 96%

Compound: C[C@@H]1CN(CC(=O)N2CC(C)(C)c3ncc(Cc4ccc(F)cc4)cc32)[C@@H](Cn2ccnc2C(F)(F)F)CN1 [Example 5, 1-{6-[(4-Fluorophenyl)methyl]-3,3-dimethyl-1H,2H,3H-pyrrolo[3,2-b]pyridin-1-yl}-2-[(2R,5R)-5-methyl-2-{[2-(trifluoromethyl)-1H-imidazol-1-yl]methyl}piperazin-1-yl]ethan-1-one, dihydrochloride]
IC50 [2]: 110 nM
inhibition at […] [3]: 96%

Compound: C[C@@H]1CN(CC(=O)N2CC(C)(C)c3ncc(Cc4ccc(F)cc4)cc32)[C@@H](Cn2ccnc2)CN1 [Example 6, 1-{6-[(4-Fluorophenyl)methyl]-3,3-dimethyl-1H,2H,3H-pyrrolo[3,2-b]pyridin-1-yl}-2-[(2R,5R)-2-(1H-imidazol-1-ylmethyl)-5-methylpiperazin-1-yl]ethan-1-one, dihydrochloride]
inhibition at […] [2]: 54%

Compound: Cc1cn(C[C@H]2CN[C@H](C)CN2CC(=O)N2CC(C)(C)c3ncc(Cc4ccc(F)cc4)cc32)c(C)n1 [Example 7, 2-[(2R,5R)-2-[(2,4-Dimethyl-1H-imidazol-1-yl)methyl]-5-methylpiperazin-1-yl]-1-{6-[(4-fluorophenyl)methyl]-3,3-dimethyl-1H,2H,3H-pyrrolo[3,2-b]pyridin-1-yl}ethan-1-one, dihydrochloride]
EC50 ([1]; 72 hours): 2.9 nM

Compound: C[C@@H]1CN(CC(=O)N2CC(C)(C)c3ncc(Cc4ccc(F)cc4)cc32)[C@@H](Cn2ccnc2Cl)CN1 [Example 8, 2-[(2R,5R)-2-[(2-Chloro-1H-imidazol-1-yl)methyl]-5-methylpiperazin-1-yl]-1-{6-[(4-fluorophenyl)methyl]-3,3-dimethyl-1H,2H,3H-pyrrolo[3,2-b]pyridin-1-yl}ethan-1-one, dihydrochloride]
inhibition at 0.04 µM [2]: 36%
inhibition at […] [3]: 100%

Compound: Cc1ccc(=O)n(C[C@H]2CN[C@H](C)CN2CC(=O)N2CC(C)(C)c3ncc(Cc4ccc(F)cc4)cc32)c1 [Example 9, 1-{[(2R,5R)-1-(2-{6-[(4-Fluorophenyl)methyl]-3,3-dimethyl-1H,2H,3H-pyrrolo[3,2-b]pyridin-1-yl}-2-oxoethyl)-5-methylpiperazin-2-yl]methyl}-5-methyl-1,2-dihydropyridin-2-one, dihydrochloride]
inhibition at 0.04 µM [2]: 35%
inhibition at […] [3]: 92%

EC50 ([1]; EVSA-T, 72 h): 6.4 nM
Compound: C[C@@H]1CN(CC(=O)N2CC(C)(C)c3ncc(Cc4ccc(F)cc4)cc32)[C@@H](Cn2ccnc2C#N)CN1 [Example 10, 1-{[(2R,5R)-1-(2-{6-[(4-Fluorophenyl)methyl]-3,3-dimethyl-1H,2H,3H-pyrrolo[3,2-b]pyridin-1-yl}-2-oxoethyl)-5-methylpiperazin-2-yl]methyl}-1H-imidazole-2-carbonitrile, L-lactate]

EC50 ([1]; EVSA-T, 72 h): 1.8 nM
Compound: Cc1nc(Cl)cn1C[C@H]1CN[C@H](C)CN1CC(=O)N1CC(C)(C)c2ncc(Cc3ccc(F)cc3)cc21 [Example 11, 2-[(2R,5R)-2-[(4-Chloro-2-methyl-1H-imidazol-1-yl)methyl]-5-methylpiperazin-1-yl]-1-{6-[(4-fluorophenyl)methyl]-3,3-dimethyl-1H,2H,3H-pyrrolo[3,2-b]pyridin-1-yl}ethan-1-one, dihydrochloride]

Compound: Cc1cnnn1C[C@H]1CN[C@H](C)CN1CC(=O)N1CC(C)(C)c2ncc(Cc3ccc(F)cc3)cc21 [Example 15, 1-{6-[(4-Fluorophenyl)methyl]-3,3-dimethyl-1H,2H,3H-pyrrolo[3,2-b]pyridin-1-yl}-2-[(2R,5R)-5-methyl-2-[(5-methyl-1H-1,2,3-triazol-1-yl)methyl]piperazin-1-yl]ethan-1-one, dihydrochloride]
IC50 [2]: 220 nM
EC50 ([1]; 72 hours): 9.4 nM

Compound: Cc1cn(C[C@H]2CN[C@H](C)CN2CC(=O)N2CC(C)(C)c3ncc(Cc4ccc(F)cc4)cc32)nn1 [Example 16, 1-{6-[(4-Fluorophenyl)methyl]-3,3-dimethyl-1H,2H,3H-pyrrolo[3,2-b]pyridin-1-yl}-2-[(2R,5R)-5-methyl-2-[(4-methyl-1H-1,2,3-triazol-1-yl)methyl]piperazin-1-yl]ethan-1-one, dihydrochloride]
EC50 ([1]; 72 hours): 8.5 nM

Compound: Cc1ncnn1C[C@H]1CN[C@H](C)CN1CC(=O)N1CC(C)(C)c2ncc(Cc3ccc(F)cc3)cc21 [Example 21, 1-{6-[(4-Fluorophenyl)methyl]-3,3-dimethyl-1H,2H,3H-pyrrolo[3,2-b]pyridin-1-yl}-2-[(2R,5R)-5-methyl-2-[(5-methyl-1H-1,2,4-triazol-1-yl)methyl]piperazin-1-yl]ethan-1-one]
inhibition at […] [2]: 61%
inhibition at […] [3]: 95%

Compound: Cc1cc(C[C@H]2CN[C@H](C)CN2CC(=O)N2CC(C)(C)c3ncc(Cc4ccc(F)cc4F)cc32)n(C)n1 [Example 22, 1-{6-[(2,4-Difluorophenyl)methyl]-3,3-dimethyl-1H,2H,3H-pyrrolo[3,2-b]pyridin-1-yl}-2-[(2S,5R)-2-[(1,3-dimethyl-1H-pyrazol-5-yl)methyl]-5-methylpiperazin-1-yl]ethan-1-one, dihydrochloride]
inhibition at 0.04 µM [2]: 47%

Compound: Cc1cn(C[C@H]2CN[C@H](C)CN2CC(=O)N2CC(C)(C)c3ncc(Cc4ccc(F)cc4)cc32)ccc1=O [Example 38, 1-{[(2R,5R)-1-(2-{6-[(4-Fluorophenyl)methyl]-3,3-dimethyl-1H,2H,3H-pyrrolo[3,2-b]pyridin-1-yl}-2-oxoethyl)-5-methylpiperazin-2-yl]methyl}-3-methyl-1,4-dihydropyridin-4-one, dihydrochloride]
inhibition at 0.04 µM [2]: 48%
inhibition at […] [3]: 94%
